From US20070202578A1, “Production of globosides oligosaccharides using metabolically engineered microorganisms” (priority 2005, published 2007) come the findings set out here.

The target of this assay is T1, LgtD protein (Haemophilus influenzae, UniProt Q57287).
T1 construct: made in house; host or cells: strain overexpressing lgtD; E. coli K12 derivative is inferred from the lgtD strains described, e.g. TA21 with pACT3-lgtD; used as crude extract
The assay can be described thus: enzymatic assays with crude extracts from a strain overexpressing the lgtD gene (donor Km with globotriose or globotetraose as acceptor). The assay is classed as biochemical.

T1 sequence (Q57287 whole entry): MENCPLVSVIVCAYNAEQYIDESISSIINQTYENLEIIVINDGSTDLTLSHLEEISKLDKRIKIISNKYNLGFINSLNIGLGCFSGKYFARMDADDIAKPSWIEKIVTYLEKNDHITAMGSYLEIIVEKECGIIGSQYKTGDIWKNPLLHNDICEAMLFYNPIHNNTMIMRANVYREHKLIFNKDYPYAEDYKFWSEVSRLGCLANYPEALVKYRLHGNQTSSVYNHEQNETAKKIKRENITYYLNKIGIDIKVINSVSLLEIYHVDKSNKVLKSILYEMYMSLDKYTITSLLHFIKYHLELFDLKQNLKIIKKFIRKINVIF

For the molecule `CC(=O)N[C@H]1[C@@H](OP(=O)(O)OP(=O)(O)OC[C@H]2O[C@@H](n3ccc(=O)[nH]c3=O)[C@H](O)[C@@H]2O)O[C@H](CO)[C@H](O)[C@@H]1O` [UDP-GalNAc], the “Km for UDP-GalNAc, fold lower than for UDP-Gal” value (globotriose as the acceptor) is listed as 6 fold. Besides, under “replacement of globotriose by globotetraose as the acceptor”, the “fold increase in the Km for UDP-GalNAc” value amounted to 20 fold.
